Results: ChEMBL document CHEMBL1833802, “Substitution of the GalNAc-α-O-Thr¹¹ residue in drosocin with O-linked glyco-peptoid residue: effect on antibacterial activity and conformational change” (2011)
The source made the active and inactive calls. No cut-off for these calls is given here. Numbered stars: 1 amine (or outer) side, 2 acyl side, 3 side chain; on linkers, the order of the positions; unused ones are H or OH. Square brackets hold non-standard residues; d marks the D form. Peptide text beside a SMILES is read from it. X1 = CC(=O)N[C@H]1[C@@H](O[C@@H](C)CN(CC(=O)[*:2])[*:1])O[C@H](CO)[C@H](O)[C@@H]1O; X2 = CC(=O)N[C@H]1[C@@H](O[C@H](C)CN(CC(=O)[*:2])[*:1])O[C@H](CO)[C@H](O)[C@@H]1O; X3 = CC(=O)N[C@H]1[C@@H](OCCN(CC(=O)[*:2])[*:1])O[C@H](CO)[C@H](O)[C@@H]1O

Columns and labels:
Escherichia coli [1] = test: Antibacterial activity against clinical isolate Escherichia coli KCTC 1682 after overnight incubation by radial diffusion assay; format: functional, organism-based
Escherichia coli [2] = test: Antibacterial activity against clinical isolate Escherichia coli KCTC 1682 at 50 uM after overnight incubation by radial diffusion assay relative to drosocin D; format: functional

CC[C@H](C)[C@H](NC(=O)[C@@H]1CCCN1C(=O)[C@H](CCCNC(=N)N)NC(=O)[C@@H]1CCCN1C(=O)[C@H](Cc1cnc[nH]1)NC(=O)[C@H](CO)NC(=O)CN(C[C@H](C)O[C@H]1O[C@H](CO)[C@H](O)[C@H](O)[C@H]1NC(C)=O)C(=O)[C@H](C)NC(=O)[C@H](CCCNC(=N)N)NC(=O)[C@@H]1CCCN1C(=O)[C@@H](NC(=O)[C@H](Cc1ccc(O)cc1)NC(=O)[C@@H]1CCCN1C(=O)[C@H](CCCNC(=N)N)NC(=O)[C@@H]1CCCN1C(=O)[C@H](CCCCN)NC(=O)CN)[C@@H](C)O)C(=O)N[C@@H](CCCNC(=N)N)C(=O)N[C@H](C(=O)O)C(C)C (H-GKPRPYTPRA[X1]SHPRPIRV-OH)
Activity (Escherichia coli [1]): Dose-dependent effect
fold change (FC) (Escherichia coli [2]): 6

CC[C@H](C)[C@H](NC(=O)[C@@H]1CCCN1C(=O)[C@H](CCCNC(=N)N)NC(=O)[C@@H]1CCCN1C(=O)[C@H](Cc1cnc[nH]1)NC(=O)[C@H](CO)NC(=O)CN(C[C@@H](C)O[C@H]1O[C@H](CO)[C@H](O)[C@H](O)[C@H]1NC(C)=O)C(=O)[C@H](C)NC(=O)[C@H](CCCNC(=N)N)NC(=O)[C@@H]1CCCN1C(=O)[C@@H](NC(=O)[C@H](Cc1ccc(O)cc1)NC(=O)[C@@H]1CCCN1C(=O)[C@H](CCCNC(=N)N)NC(=O)[C@@H]1CCCN1C(=O)[C@H](CCCCN)NC(=O)CN)[C@@H](C)O)C(=O)N[C@@H](CCCNC(=N)N)C(=O)N[C@H](C(=O)O)C(C)C (H-GKPRPYTPRA[X2]SHPRPIRV-OH)
Activity (Escherichia coli [1]): Active

CC[C@H](C)[C@H](NC(=O)[C@@H]1CCCN1C(=O)[C@H](CCCNC(=N)N)NC(=O)[C@@H]1CCCN1C(=O)[C@H](Cc1cnc[nH]1)NC(=O)[C@H](CO)NC(=O)CN(CCO[C@H]1O[C@H](CO)[C@H](O)[C@H](O)[C@H]1NC(C)=O)C(=O)[C@H](C)NC(=O)[C@H](CCCNC(=N)N)NC(=O)[C@@H]1CCCN1C(=O)[C@@H](NC(=O)[C@H](Cc1ccc(O)cc1)NC(=O)[C@@H]1CCCN1C(=O)[C@H](CCCNC(=N)N)NC(=O)[C@@H]1CCCN1C(=O)[C@H](CCCCN)NC(=O)CN)[C@@H](C)O)C(=O)N[C@@H](CCCNC(=N)N)C(=O)N[C@H](C(=O)O)C(C)C (H-GKPRPYTPRA[X3]SHPRPIRV-OH)
Activity (Escherichia coli [1]): Active
